# Test results as given in PMC9898036, “VIP152 is a selective CDK9 inhibitor with pre-clinical in vitro and in vivo efficacy in chronic lymphocytic leukemia” (Leukemia, 2022).
# What was measured:
# Format in all cases: binding
# [1] = target: CLK2 (Homo sapiens, UniProt P49760); assay: KINOMEscan: CLK2; settings: 1000 nM, read-out: Percent Control
# [2] = target: IKK-beta (Homo sapiens, UniProt O14920); assay: KINOMEscan: IKK-beta; settings: 1000 nM, read-out: Percent Control
# [3] = target: CDK4 (Homo sapiens, UniProt P11802); assay: KINOMEscan: CDK4; settings: 1000 nM, read-out: Percent Control
# Chain of CDK4 (P11802 whole entry): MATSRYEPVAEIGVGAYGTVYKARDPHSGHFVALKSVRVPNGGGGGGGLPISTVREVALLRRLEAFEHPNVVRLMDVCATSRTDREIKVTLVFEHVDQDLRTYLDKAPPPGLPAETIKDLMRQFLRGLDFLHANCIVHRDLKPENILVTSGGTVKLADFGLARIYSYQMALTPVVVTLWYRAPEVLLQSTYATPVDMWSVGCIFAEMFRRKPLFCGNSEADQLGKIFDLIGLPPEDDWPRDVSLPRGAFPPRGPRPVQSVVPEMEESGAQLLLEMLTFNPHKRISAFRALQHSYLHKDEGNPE
# [4] = target: MET(Y1235D) (Homo sapiens, UniProt P08581, Y1235D); assay: KINOMEscan: MET(Y1235D); settings: 1000 nM, read-out: Percent Control
# Chain of MET(Y1235D) (P08581 25-1390 Y1235D): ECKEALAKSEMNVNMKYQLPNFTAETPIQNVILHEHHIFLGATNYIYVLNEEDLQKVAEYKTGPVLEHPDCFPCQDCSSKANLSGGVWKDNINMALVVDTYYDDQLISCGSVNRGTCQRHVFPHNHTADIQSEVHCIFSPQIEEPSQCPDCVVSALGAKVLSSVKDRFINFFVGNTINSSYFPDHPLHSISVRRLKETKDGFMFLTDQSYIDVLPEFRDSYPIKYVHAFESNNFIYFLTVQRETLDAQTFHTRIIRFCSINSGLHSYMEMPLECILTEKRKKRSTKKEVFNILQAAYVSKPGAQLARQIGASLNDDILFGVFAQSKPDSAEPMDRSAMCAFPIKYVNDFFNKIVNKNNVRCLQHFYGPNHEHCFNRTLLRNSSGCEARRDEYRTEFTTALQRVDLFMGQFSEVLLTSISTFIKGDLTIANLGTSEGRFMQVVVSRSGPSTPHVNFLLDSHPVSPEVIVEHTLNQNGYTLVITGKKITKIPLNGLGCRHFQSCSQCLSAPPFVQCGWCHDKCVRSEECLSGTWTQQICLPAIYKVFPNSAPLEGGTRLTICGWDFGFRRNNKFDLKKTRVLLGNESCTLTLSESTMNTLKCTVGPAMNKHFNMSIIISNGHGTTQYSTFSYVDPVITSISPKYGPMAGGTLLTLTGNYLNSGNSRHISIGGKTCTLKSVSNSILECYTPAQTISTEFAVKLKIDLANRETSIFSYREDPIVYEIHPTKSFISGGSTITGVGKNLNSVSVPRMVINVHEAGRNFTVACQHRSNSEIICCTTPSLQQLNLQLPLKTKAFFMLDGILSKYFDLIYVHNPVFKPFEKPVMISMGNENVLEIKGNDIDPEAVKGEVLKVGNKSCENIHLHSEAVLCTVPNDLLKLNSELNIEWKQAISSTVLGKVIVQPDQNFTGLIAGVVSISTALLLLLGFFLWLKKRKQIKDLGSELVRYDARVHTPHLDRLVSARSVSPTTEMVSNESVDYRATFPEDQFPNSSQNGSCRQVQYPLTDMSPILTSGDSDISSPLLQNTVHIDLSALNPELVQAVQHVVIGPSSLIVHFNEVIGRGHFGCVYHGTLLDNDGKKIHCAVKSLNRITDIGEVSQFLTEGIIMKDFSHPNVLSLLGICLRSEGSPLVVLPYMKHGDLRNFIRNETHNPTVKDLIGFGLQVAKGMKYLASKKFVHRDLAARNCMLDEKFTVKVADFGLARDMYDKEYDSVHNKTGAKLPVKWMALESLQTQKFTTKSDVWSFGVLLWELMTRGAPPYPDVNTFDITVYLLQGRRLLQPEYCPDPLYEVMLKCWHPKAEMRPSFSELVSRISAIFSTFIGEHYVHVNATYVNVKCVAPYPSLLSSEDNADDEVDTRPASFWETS
# [5] = target: SNARK (Homo sapiens, UniProt Q9H093); assay: KINOMEscan: SNARK; settings: 100 nM, read-out: Percent Control
# [6] = target: Endothelin ETA (Homo sapiens, UniProt P25101); assay: Eurofins Diversity Panel; settings: hum, Conc. 10 μM
# [7] = target: ADCK3 (Homo sapiens, UniProt Q8NI60); assay: KINOMEscan: ADCK3; settings: 1000 nM, read-out: Percent Control
# [8] = target: ADCK4 (Homo sapiens, UniProt Q96D53); assay: KINOMEscan: ADCK4; settings: 1000 nM, read-out: Percent Control
# Chain of ADCK4 (Q96D53 whole entry): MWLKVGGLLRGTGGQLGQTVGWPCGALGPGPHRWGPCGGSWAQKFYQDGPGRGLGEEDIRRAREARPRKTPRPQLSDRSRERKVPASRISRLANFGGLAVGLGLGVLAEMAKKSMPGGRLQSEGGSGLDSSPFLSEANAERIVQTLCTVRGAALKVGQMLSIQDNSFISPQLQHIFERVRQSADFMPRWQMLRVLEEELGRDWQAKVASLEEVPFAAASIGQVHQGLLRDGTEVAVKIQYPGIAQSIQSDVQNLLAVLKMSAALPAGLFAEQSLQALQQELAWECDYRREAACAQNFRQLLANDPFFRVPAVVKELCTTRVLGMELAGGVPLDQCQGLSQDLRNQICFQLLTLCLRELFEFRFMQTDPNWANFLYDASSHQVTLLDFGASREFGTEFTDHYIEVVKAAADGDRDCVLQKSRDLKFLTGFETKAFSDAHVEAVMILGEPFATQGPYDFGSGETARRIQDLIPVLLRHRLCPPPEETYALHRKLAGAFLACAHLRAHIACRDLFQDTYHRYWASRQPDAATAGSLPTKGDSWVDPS
# [9] = target: MUSK (Homo sapiens, UniProt O15146); assay: KINOMEscan: MUSK; settings: 1000 nM, read-out: Percent Control
# [10] = target: AMPK-alpha2 (Homo sapiens, UniProt P54646); assay: KINOMEscan: AMPK-alpha2; settings: 1000 nM, read-out: Percent Control
# [11] = target: KIT(D816V) (Homo sapiens, UniProt P10721, D816V); assay: KINOMEscan: KIT(D816V); settings: 1000 nM, read-out: Percent Control
# [12] = target: IKK-epsilon (Homo sapiens, UniProt Q14164); assay: KINOMEscan: IKK-epsilon; settings: 1000 nM, read-out: Percent Control
# [13] = target: CIT (Homo sapiens, UniProt O14578); assay: KINOMEscan: CIT; settings: 1000 nM, read-out: Percent Control
# Chain of CIT (O14578 whole entry): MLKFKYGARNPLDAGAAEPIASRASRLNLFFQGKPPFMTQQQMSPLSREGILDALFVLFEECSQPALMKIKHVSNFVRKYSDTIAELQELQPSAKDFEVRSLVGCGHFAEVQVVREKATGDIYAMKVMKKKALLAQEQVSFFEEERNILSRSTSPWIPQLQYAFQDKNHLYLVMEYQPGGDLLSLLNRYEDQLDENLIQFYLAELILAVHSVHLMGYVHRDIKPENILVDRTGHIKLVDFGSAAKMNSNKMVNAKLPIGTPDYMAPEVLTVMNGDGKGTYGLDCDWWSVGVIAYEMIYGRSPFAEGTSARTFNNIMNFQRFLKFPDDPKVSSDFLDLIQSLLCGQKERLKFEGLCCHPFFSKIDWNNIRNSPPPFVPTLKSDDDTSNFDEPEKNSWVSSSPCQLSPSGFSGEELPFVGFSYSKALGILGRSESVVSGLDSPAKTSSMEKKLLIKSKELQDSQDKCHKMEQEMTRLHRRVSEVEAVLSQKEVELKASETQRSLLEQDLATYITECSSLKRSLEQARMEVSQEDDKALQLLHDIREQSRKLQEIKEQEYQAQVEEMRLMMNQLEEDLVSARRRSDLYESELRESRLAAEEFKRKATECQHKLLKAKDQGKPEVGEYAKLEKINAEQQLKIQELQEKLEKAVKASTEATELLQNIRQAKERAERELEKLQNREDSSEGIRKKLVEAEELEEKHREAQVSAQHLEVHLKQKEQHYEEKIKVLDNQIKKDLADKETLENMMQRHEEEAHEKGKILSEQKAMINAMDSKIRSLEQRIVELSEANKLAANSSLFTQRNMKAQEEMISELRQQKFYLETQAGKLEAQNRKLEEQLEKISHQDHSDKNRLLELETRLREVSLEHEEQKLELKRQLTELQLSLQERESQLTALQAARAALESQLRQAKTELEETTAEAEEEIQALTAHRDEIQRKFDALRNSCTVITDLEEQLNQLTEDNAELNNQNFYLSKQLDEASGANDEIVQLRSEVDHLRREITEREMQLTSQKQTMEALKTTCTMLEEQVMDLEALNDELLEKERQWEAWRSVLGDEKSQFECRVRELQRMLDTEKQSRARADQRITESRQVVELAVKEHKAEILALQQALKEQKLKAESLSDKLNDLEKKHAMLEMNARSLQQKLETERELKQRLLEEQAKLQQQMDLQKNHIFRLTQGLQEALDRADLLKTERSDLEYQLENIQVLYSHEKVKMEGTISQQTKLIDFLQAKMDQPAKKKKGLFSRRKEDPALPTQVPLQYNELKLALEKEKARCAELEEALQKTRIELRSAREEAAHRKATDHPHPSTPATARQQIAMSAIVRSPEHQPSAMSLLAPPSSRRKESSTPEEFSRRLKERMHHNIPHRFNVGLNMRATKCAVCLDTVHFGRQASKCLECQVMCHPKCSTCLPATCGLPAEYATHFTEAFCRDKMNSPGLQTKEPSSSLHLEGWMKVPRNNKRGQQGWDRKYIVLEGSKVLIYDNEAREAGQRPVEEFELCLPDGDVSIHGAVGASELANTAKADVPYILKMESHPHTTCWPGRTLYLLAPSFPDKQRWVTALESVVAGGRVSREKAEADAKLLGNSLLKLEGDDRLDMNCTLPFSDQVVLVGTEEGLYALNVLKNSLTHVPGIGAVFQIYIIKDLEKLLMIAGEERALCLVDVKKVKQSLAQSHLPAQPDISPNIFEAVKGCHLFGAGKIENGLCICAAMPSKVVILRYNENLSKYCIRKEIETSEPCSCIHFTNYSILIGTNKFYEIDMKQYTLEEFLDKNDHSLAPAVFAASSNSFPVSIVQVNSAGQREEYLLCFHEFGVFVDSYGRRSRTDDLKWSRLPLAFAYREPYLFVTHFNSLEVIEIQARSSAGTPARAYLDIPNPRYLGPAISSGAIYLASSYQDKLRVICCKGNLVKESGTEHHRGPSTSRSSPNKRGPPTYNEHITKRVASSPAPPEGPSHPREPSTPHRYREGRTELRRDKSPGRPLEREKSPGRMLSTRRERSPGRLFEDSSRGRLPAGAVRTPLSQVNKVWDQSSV
# [14] = target: EPHA5 (Homo sapiens, UniProt P54756); assay: KINOMEscan: EPHA5; settings: 1000 nM, read-out: Percent Control
# [15] = target: ALK (Homo sapiens, UniProt Q9UM73); assay: KINOMEscan: ALK; settings: 1000 nM, read-out: Percent Control
# [16] = target: RPS6KA4(Kin.Dom.2-C-terminal) (Homo sapiens, UniProt O75676); assay: KINOMEscan: RPS6KA4(Kin.Dom.2-C-terminal); settings: 100 nM, read-out: Percent Control
# [17] = target: MAK (Homo sapiens, UniProt P20794); assay: KINOMEscan: MAK; settings: 1000 nM, read-out: Percent Control
# [18] = target: Adenosine A1 (Homo sapiens, UniProt P30542); assay: Eurofins Diversity Panel; settings: hum, Conc. 10 μM
# [19] = target: Neuropeptide Y Y1 (Homo sapiens, UniProt P25929); assay: Eurofins Diversity Panel; settings: hum, Conc. 10 μM
# [20] = target: DYRK1B (Homo sapiens, UniProt Q9Y463); assay: KINOMEscan: DYRK1B; settings: 1000 nM, read-out: Percent Control
# [21] = target: WEE1 (Homo sapiens, UniProt P30291); assay: KINOMEscan: WEE1; settings: 100 nM, read-out: Percent Control
# [22] = target: WNK4 (Homo sapiens, UniProt Q96J92); assay: KINOMEscan: WNK4; settings: 100 nM, read-out: Percent Control
# [23] = target: MKNK2 (Homo sapiens, UniProt Q9HBH9); assay: KINOMEscan: MKNK2; settings: 1000 nM, read-out: Percent Control
# [24] = target: MET(M1250T) (Homo sapiens, UniProt P08581, M1250T); assay: KINOMEscan: MET(M1250T); settings: 1000 nM, read-out: Percent Control
# [25] = target: CLK3 (Homo sapiens, UniProt P49761); assay: KINOMEscan: CLK3; settings: 1000 nM, read-out: Percent Control
# [26] = target: ACVR1B (Homo sapiens, UniProt P36896); assay: KINOMEscan: ACVR1B; settings: 1000 nM, read-out: Percent Control
# [27] = target: BRAF(V600E) (Homo sapiens, UniProt P15056, V600E); assay: KINOMEscan: BRAF(V600E); settings: 1000 nM, read-out: Percent Control
# [28] = target: MST1R (Homo sapiens, UniProt Q04912); assay: KINOMEscan: MST1R; settings: 1000 nM, read-out: Percent Control
# [29] = target: FER (Homo sapiens, UniProt P16591); assay: KINOMEscan: FER; settings: 1000 nM, read-out: Percent Control
# [30] = target: MAP4K5 (Homo sapiens, UniProt Q9Y4K4); assay: KINOMEscan: MAP4K5; settings: 1000 nM, read-out: Percent Control
# [31] = target: Dopamine D4.2 (Homo sapiens, UniProt P21917, DEL265-296); assay: Eurofins Diversity Panel; settings: hum, Conc. 10 μM
# [32] = target: CDK5 (Homo sapiens, UniProt Q00535); assay: KINOMEscan: CDK5; settings: 1000 nM, read-out: Percent Control
# [33] = target: TGFBR2 (Homo sapiens, UniProt P37173); assay: KINOMEscan: TGFBR2; settings: 100 nM, read-out: Percent Control
# [34] = target: RIOK1 (Homo sapiens, UniProt Q9BRS2); assay: KINOMEscan: RIOK1; settings: 100 nM, read-out: Percent Control
# [35] = target: FLT1 (Homo sapiens, UniProt P17948); assay: KINOMEscan: FLT1; settings: 1000 nM, read-out: Percent Control
# [36] = target: LCK (Homo sapiens, UniProt P06239); assay: KINOMEscan: LCK; settings: 1000 nM, read-out: Percent Control
# [37] = target: JAK1(JH2domain-pseudokinase) (Homo sapiens, UniProt P23458); assay: KINOMEscan: JAK1(JH2domain-pseudokinase); settings: 1000 nM, read-out: Percent Control
# [38] = target: CAMK1G (Homo sapiens, UniProt Q96NX5); assay: KINOMEscan: CAMK1G; settings: 1000 nM, read-out: Percent Control
# [39] = target: STK39 (Homo sapiens, UniProt Q9UEW8); assay: KINOMEscan: STK39; settings: 100 nM, read-out: Percent Control
# [40] = target: ACVR1 (Homo sapiens, UniProt Q04771); assay: KINOMEscan: ACVR1; settings: 1000 nM, read-out: Percent Control
# Chain of ACVR1 (Q04771 21-509): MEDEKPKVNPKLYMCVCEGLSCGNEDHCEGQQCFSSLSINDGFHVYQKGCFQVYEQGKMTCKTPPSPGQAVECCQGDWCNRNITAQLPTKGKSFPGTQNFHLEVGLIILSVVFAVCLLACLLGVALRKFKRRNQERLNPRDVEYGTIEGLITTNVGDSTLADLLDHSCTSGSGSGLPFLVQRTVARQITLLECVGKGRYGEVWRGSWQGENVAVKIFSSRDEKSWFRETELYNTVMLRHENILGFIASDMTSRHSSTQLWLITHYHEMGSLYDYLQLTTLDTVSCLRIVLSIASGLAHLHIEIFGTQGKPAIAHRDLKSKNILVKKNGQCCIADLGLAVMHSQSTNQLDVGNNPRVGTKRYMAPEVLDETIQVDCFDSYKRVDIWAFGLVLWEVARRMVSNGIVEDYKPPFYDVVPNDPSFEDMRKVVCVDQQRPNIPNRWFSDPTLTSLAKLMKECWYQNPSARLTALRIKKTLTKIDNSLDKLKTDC
# [41] = target: PFPK5(P.falciparum) (Plasmodium falciparum, UniProt P61075); assay: DiscoverX KINOMEscan kinase profiling; settings: kinase PFPK5(P.falciparum) (Entrez MAL13P1.279); compound concentration 1000 nM; read-out: Percent Control
# Chain of PFPK5(P.falciparum) (P61075 whole entry): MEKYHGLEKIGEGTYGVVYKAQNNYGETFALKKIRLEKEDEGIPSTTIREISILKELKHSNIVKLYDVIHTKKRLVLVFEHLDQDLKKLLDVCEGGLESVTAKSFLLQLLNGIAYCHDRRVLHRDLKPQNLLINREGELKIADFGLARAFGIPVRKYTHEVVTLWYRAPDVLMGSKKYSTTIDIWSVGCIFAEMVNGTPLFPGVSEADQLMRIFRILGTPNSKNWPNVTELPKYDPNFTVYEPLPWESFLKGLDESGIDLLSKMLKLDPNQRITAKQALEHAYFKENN
structure (smiles),measurement,setting,value
COc1cc(F)ccc1-c1cc(Nc2cc(CS(C)(=N)=O)ccn2)ncc1F (centres unmarked) [VIP152],remaining binding at 1 µM,[1],82%
same,remaining binding at 1 µM,[2],100%
same,remaining binding at 1 µM,[3],71%
same,remaining binding at 1 µM,[4],19%
same,remaining binding at 0.1 µM,[5],100%
same,inhibition at 10 µM,[6],13%
same,remaining binding at 1 µM,[7],97%
same,remaining binding at 1 µM,[8],82%
same,remaining binding at 1 µM,[9],58%
same,remaining binding at 1 µM,[10],99%
same,remaining binding at 1 µM,[11],88%
same,remaining binding at 1 µM,[12],51%
same,remaining binding at 1 µM,[13],43%
same,remaining binding at 1 µM,[14],88%
same,remaining binding at 1 µM,[15],92%
same,remaining binding at 0.1 µM,[16],100%
same,remaining binding at 1 µM,[17],84%
same,inhibition at 10 µM,[18],4%
same,inhibition at 10 µM,[19],-3%
same,remaining binding at 1 µM,[20],20%
same,remaining binding at 0.1 µM,[21],98%
same,remaining binding at 0.1 µM,[22],100%
same,remaining binding at 1 µM,[23],96%
same,remaining binding at 1 µM,[24],27%
same,remaining binding at 1 µM,[25],85%
same,remaining binding at 1 µM,[26],96%
same,remaining binding at 1 µM,[27],92%
same,remaining binding at 1 µM,[28],70%
same,remaining binding at 1 µM,[29],97%
same,remaining binding at 1 µM,[30],41%
same,inhibition at 10 µM,[31],32%
same,remaining binding at 1 µM,[32],83%
same,remaining binding at 0.1 µM,[33],100%
same,remaining binding at 0.1 µM,[34],100%
same,remaining binding at 1 µM,[35],86%
same,remaining binding at 1 µM,[36],56%
same,remaining binding at 1 µM,[37],96%
same,remaining binding at 1 µM,[38],89%
same,remaining binding at 0.1 µM,[39],100%
same,remaining binding at 1 µM,[40],64%
same,remaining binding at 1 µM,[41],99%
